A short description of data set [1]: Hygroscopicity / hygroscopic stability. Format: physicochemical.
The conditions of data set [2]: for SOLUBILITY IN WATER: Aqueous solubility of ziprasidone mesylate polymorphs, ambient temperature (22-25° C.), equilibration 12-13 days.
Procedure: (§1) The relative thermodynamic stability of the three ziprasidone mesylate hydrated crystal forms was determined in a series of bridging experiments where mixtures of the crystal forms were allowed to equilibrate. For the bridging experiments, 200 mg samples were allowed to equilibrate in water (4 mL) at ambient temperature (22-25° C.). Two samples each of 90/10 (w/w) and 10/90 (w/w) mixtures of the two different identified polymorphs of ziprasidone mesylate (prism vs. dihydrate (lath), prism vs. dihydrate (needle), dihydrate (needle) vs. dihydrate (lath)) were evaluated. After equilibration (12-13 days), the solids were evaluated for polymorph changes and the supernatants were assayed by HPLC to determine solubility.
For data set [3] the following is noted: as stated by U.S. Pat. No. 5,312,925; cited from earlier work.
Data set [4] is described as follows: Relative thermodynamic stability of the crystal forms in water (bridging experiments). Format: physicochemical. Particulars: for thermodynamic stability in an aqueous medium (words): ambient conditions/temperature, among the four ziprasidone mesylate forms, methanesulfonate trihydrate.
Data set [5] is described as follows: physchem. Particulars: water.
Procedure: as §1

The values below come from patent publication US6110918A, “Mesylate trihydrate salt of 5-(2-(4-(1,2-benzisothiazol-3-yl)-1-piperazinyl)ethyl)-6-chloro-1,3-dihy dro-2(1H)-indol-2-one (=ziprasidone), its preparation and its use as dopamine D2 antagonist” (Pfizer Inc, priority 1999, dated 2000).

The structures appear in SMILES notation. Counter-ions that a name gives are not always drawn. Like-named read-outs stand apart in the source and are kept apart here.

`O=C1Cc2cc(CCN3CCN(c4nsc5ccccc45)CC3)c(Cl)cc2N1` [5-[2-[4-(1,2-benzisothiazol-3-yl)-1-piperazinyl]ethyl]-6-chloro-1,3-dihydro-2H-indol-2-one methanesulfonate anhydrous]: the “hygroscopicity when exposed to air” value in data set [1] (exposed to air (humidity)) is given as “hygroscopic when exposed to air (humidity)”. The “SOLUBILITY IN WATER” value in data set [2] (listed as anhydrous) was determined as 1.27 mg/mL.
For `O=C1Cc2cc(CCN3CCN(c4nsc5ccccc45)CC3)c(Cl)cc2N1` [5-[2-[4-(1-benzisothiazol-3-yl)-1-piperazinyl]ethyl]-6-chloro-1,3-dihydro-2H-indol-2-one methanesulfonate dihydrate (lath crystals)], the “SOLUBILITY IN WATER” value in data set [2] (listed as dihydrate (lath)) stood at 1.11 mg/mL.
Consider `O=C1Cc2cc(CCN3CCN(c4nsc5ccccc45)CC3)c(Cl)cc2N1` [5-[2-[4-(1-benzisothiazol-3-yl)-1-piperazinyl]ethyl]-6-chloro-1,3-dihydro-2H-indol-2-one methanesulfonate dihydrate (needle crystals)], for which the “SOLUBILITY IN WATER” value in data set [2] (listed as dihydrate (needle)) is recorded as 1.10 mg/mL.
For `O=C1Cc2cc(CCN3CCN(c4nsc5ccccc45)CC3)c(Cl)cc2N1` [ziprasidone hydrochloride monohydrate, reference compound], the “aqueous solubility” value in data set [2] (background statement) was “low aqueous solubility”. The solubility in water in data set [2] (in water at ambient temperature, comparator salt) was determined as 80 µg/mL. Moreover, in data set [3], the “hygroscopic stability” value is reported as “substantially hygroscopically stable”.
As to `CS(=O)(=O)O.O.O.O.O=C1Cc2cc(CCN3CCN(c4nsc5ccccc45)CC3)c(Cl)cc2N1` [ziprasidone mesylate trihydrate, 5-[2-[4-(1,2-benzisothiazol-3-yl)-1-piperazinyl]ethyl]-6-chloro-1,3-dihydro-2H-indol-2-one methanesulfonate trihydrate], the “thermodynamic stability in an aqueous medium (words)” value in data set [4] (listed as mesylate trihydrate) is “most thermodynamically stable”; in data set [4] it was “most thermodynamically stable form of the four ziprasidone mesylate forms”. In data set [4] (bridging experiments, 200 mg in water (4 mL), 22-25° C., 12-13 days), the “thermodynamic stability relative to the dihydrate forms” value is recorded as “thermodynamically favored over the dihydrate forms”. In addition, the “hygroscopic stability” value in data set [1] is “possesses hygroscopic stability”. Besides, the “aqueous solubility relative to ziprasidone hydrochloride monohydrate” value in data set [2] (compared with hydrochloride monohydrate) is “significantly greater aqueous solubility than the hydrochloride monohydrate”. Moreover, the solubility in data set [5] stood at 730 µg/mL.

The solubility is the dissolved amount per volume that the medium holds. Low readings indicate a poorly soluble substance, high ones a readily soluble substance.
